Measured values from ChEMBL document CHEMBL4425166, “Discovery of Pyridinyl Acetamide Derivatives as Potent, Selective, and Orally Bioavailable Porcupine Inhibitors” (ACS Med Chem Lett, 2016).
≈ marks a conversion by molar mass, not a printed value. Values belong to the compound of their own block, whether it stands above or below them. Calls of active or inactive are those of the source. The calls are words filed in the database; no cut-off is given here.

Experiments:
[1] = Aqueous solubility of compound in buffer of pH 6.8 after 24 hrs by UV-based high throughput assay; assay type: physicochemical
[2] = target: T1, Protein-serine O-palmitoleoyltransferase porcupine (Mus musculus, UniProt Q9JJJ7); assay: Inhibition of PORCN in […] overexpressing Wnt3A co-cultured with TM3 cells transfected with Wnt-luciferase gene after 24 hrs by luminescence assay; assay type: cell-based
T1 sequence (Q9JJJ7 whole entry): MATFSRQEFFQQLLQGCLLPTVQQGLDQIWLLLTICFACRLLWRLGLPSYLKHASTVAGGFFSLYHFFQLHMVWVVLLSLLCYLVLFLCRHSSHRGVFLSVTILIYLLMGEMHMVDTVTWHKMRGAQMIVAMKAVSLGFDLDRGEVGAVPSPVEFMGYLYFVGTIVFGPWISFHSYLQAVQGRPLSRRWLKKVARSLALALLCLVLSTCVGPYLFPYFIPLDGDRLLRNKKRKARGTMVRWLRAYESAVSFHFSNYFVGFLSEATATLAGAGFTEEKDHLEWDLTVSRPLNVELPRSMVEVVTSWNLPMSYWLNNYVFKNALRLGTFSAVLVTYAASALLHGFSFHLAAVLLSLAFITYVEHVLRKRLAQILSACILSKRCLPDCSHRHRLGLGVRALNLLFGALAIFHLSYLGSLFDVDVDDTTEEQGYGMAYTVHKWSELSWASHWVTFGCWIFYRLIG

[3] = Dose normalized Cmax in Balb/c mouse at 5 mg/kg via oral gavage after 24 hrs by LC/MS/MS analysis; assay type: ADME, organism-based; conditions: in vivo
[4] = Dose normalized AUC in Balb/c mouse at 5 mg/kg via oral gavage after 24 hrs by LC/MS/MS analysis; assay type: ADME, organism-based; conditions: in vivo
[5] = Clearance in Balb/c mouse at 2 mg/kg, iv after 24 hrs by LC/MS/MS analysis; assay type: ADME, organism-based; conditions: in vivo
[6] = target: Cytochrome P450 3A4 (Homo sapiens, UniProt P08684); assay: Inhibition of CYP3A4 (unknown origin); assay type: ADME
Chain of Cytochrome P450 3A4 (P08684 whole entry): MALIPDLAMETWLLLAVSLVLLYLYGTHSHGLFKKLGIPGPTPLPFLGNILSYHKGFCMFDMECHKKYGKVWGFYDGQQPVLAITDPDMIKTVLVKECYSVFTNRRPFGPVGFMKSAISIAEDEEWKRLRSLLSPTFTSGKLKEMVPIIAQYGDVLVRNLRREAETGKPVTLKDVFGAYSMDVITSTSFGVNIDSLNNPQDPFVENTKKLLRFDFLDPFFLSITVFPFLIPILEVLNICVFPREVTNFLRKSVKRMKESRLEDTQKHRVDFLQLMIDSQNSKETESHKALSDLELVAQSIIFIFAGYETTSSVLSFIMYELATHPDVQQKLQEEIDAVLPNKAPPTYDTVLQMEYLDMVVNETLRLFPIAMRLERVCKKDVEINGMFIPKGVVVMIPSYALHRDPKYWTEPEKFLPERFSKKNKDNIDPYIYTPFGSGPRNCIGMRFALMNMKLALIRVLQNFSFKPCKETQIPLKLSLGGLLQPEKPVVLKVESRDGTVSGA

[7] = Clearance in rat by LC/MS/MS analysis; assay type: ADME; conditions: in vivo
[8] = Clearance in dog by LC/MS/MS analysis; assay type: ADME, Canis lupus familiaris; conditions: in vivo
[9] = Volume of distribution at steady state in Balb/c mouse at 2 mg/kg, iv after 24 hrs by LC/MS/MS analysis; assay type: ADME, organism-based; conditions: in vivo, read-out: Vdss
[10] = Volume of distribution at steady state in rat by LC/MS/MS analysis; assay type: ADME; conditions: in vivo, read-out: Vdss
[11] = Volume of distribution at steady state in dog by LC/MS/MS analysis; assay type: ADME, Canis lupus familiaris; conditions: in vivo, read-out: Vdss
[12] = Terminal half life in Balb/c mouse at 2 mg/kg, iv or 5 mg/kg via oral gavage by LC/MS/MS analysis; assay type: ADME, organism-based; conditions: in vivo, read-out: beta t1/2 (converted)
[13] = Terminal half life in rat by LC/MS/MS analysis; assay type: ADME; conditions: in vivo, read-out: beta t1/2 (converted)
[14] = Terminal half life in dog by LC/MS/MS analysis; assay type: ADME, Canis lupus familiaris; conditions: in vivo, read-out: beta t1/2 (converted)
[15] = Oral bioavailability in Balb/c mouse at 5 mg/kg via gavage by LC/MS/MS analysis; assay type: ADME, organism-based; conditions: in vivo
[16] = Oral bioavailability in rat by LC/MS/MS analysis; assay type: ADME, organism-based; conditions: in vivo
[17] = Oral bioavailability in dog by LC/MS/MS analysis; assay type: ADME, organism-based, Canis lupus familiaris; conditions: in vivo
[18] = target: Cytochrome P450 2C9 (Homo sapiens, UniProt P11712); assay: Inhibition of CYP2C9 (unknown origin); assay type: ADME
Chain of Cytochrome P450 2C9 (P11712 whole entry): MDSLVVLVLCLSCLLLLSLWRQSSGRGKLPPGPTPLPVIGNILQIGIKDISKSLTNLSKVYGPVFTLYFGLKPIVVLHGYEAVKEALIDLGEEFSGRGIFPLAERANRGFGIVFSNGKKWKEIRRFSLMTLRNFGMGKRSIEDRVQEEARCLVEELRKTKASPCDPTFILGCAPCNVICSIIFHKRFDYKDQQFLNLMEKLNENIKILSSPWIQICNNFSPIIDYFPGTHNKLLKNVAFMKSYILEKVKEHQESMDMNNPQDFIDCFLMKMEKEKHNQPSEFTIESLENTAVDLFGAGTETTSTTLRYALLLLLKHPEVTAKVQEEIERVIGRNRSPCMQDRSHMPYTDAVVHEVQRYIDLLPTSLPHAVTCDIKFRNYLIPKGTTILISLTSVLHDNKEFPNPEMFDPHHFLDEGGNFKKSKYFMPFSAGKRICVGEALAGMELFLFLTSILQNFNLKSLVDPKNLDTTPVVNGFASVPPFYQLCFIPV

[19] = target: Cytochrome P450 2D6 (Homo sapiens, UniProt P10635); assay: Inhibition of CYP2D6 (unknown origin); assay type: ADME
Chain of Cytochrome P450 2D6 (P10635 whole entry): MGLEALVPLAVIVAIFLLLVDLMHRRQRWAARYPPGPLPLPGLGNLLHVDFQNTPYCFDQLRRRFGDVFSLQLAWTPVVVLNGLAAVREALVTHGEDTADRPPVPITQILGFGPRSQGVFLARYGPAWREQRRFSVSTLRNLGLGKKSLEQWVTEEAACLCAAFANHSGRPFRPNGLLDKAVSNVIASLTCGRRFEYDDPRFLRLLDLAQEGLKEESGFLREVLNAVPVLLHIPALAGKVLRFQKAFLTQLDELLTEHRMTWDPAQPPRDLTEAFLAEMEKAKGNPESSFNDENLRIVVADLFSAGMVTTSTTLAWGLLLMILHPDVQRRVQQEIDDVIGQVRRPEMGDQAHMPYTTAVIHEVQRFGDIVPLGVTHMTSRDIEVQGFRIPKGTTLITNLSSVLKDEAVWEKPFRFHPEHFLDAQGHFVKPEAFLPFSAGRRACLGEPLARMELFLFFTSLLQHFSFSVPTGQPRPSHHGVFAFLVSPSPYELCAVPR

[20] = Protein binding in mouse plasma by rapid equilibrium dialysis; assay type: ADME, cell-free; conditions: read-out: PPB (converted)
[21] = Protein binding in rat plasma by rapid equilibrium dialysis; assay type: ADME, cell-free; conditions: read-out: PPB (converted)
[22] = Protein binding in dog plasma by rapid equilibrium dialysis; assay type: ADME, cell-free, Canis lupus familiaris; conditions: read-out: PPB
[23] = Protein binding in monkey plasma by rapid equilibrium dialysis; assay type: ADME, cell-free, Macaca mulatta; conditions: rhesus monkey, read-out: PPB (converted)
[24] = Protein binding in human plasma by rapid equilibrium dialysis; assay type: ADME, cell-free; conditions: read-out: PPB (converted)
[25] = Apparent permeability across apical to basolateral side of human Caco2 cells; assay type: ADME, cell-based; conditions: Caco-2
[26] = Efflux ratio of permeability in human Caco2 cells; assay type: ADME, cell-based; conditions: Caco-2
[27] = tested on: Mus musculus; assay: Inhibition of Axin2 mRNA level in nude mouse MMTV-Wnt1 model at 3 mg/kg administered as oral gavage measured at 5 hrs by RT-PCR analysis; assay type: functional
[28] = tested on: Mus musculus; assay: Inhibition of Axin2 mRNA level in nude mouse MMTV-Wnt1 model at 3 mg/kg administered as oral gavage measured after 24 hrs by RT-PCR analysis; assay type: functional, organism-based
[29] = tested on: Mus musculus; assay: Antitumor activity in nude mouse MMTV-Wnt1 model assessed as tumor growth inhibition at 0.3 mg/kg, po qd administered for 2 weeks relative to control; assay type: functional
[30] = tested on: Mus musculus; assay: Antitumor activity in nude mouse MMTV-Wnt1 model assessed as tumor growth inhibition at 1 mg/kg, po qd administered for 2 weeks relative to control; assay type: functional
[31] = tested on: Mus musculus; assay: Antitumor activity in nude mouse MMTV-Wnt1 model assessed as tumor growth inhibition at 3 mg/kg, po qd administered for 2 weeks relative to control; assay type: functional
[32] = Toxicity in nude mouse MMTV-Wnt1 model assessed as body weight loss at 0.3 to 3 mg/kg, po qd administered for 2 weeks measured during compound dosing; assay type: organism-based; conditions: in vivo, 336 h
[33] = target: T2, Protein-serine O-palmitoleoyltransferase porcupine (Homo sapiens, UniProt Q9H237); assay: Displacement of [3H]-GNF-1331 from human PORCN after 3 hrs by scintillation counting analysis
T2 sequence (Q9H237 whole entry): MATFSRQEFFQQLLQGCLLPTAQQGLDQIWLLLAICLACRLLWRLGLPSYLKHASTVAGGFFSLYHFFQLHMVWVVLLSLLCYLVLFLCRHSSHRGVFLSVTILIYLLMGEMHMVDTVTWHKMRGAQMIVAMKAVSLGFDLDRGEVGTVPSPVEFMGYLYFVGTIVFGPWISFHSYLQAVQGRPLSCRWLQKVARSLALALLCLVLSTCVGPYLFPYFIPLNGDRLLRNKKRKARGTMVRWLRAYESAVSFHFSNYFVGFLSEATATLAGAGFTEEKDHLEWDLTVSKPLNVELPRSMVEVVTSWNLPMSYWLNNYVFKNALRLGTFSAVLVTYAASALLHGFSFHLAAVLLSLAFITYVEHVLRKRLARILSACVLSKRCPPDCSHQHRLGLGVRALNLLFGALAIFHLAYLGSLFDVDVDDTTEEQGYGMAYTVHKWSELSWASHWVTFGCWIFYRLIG

[34] = tested on: Cytochrome P450; assay: Inhibition of CYP450 (unknown origin) up to 10 uM; assay type: ADME, protein assay; conditions: human

SMILES: Cc1cc(-c2ccc(NC(=O)Nc3ccc(-c4ccccc4)cc3)cc2)ccn1
IC50 [2]: > 10000 nM

SMILES: COc1ccc2nc(NC(=O)Cc3ccc(-c4ccncc4)cc3)sc2c1
Cmax/dose [3]: 4100 nM | AUC/dose [4]: 26 µM·h | clearance [5]: 2.49 mL/min/kg | IC50 [6]: 800 nM

SMILES: Cc1cc(-c2ccc(OC(=O)Nc3ccc(-c4ccccc4)cc3)cc2)ccn1
IC50 [2]: > 10000 nM

SMILES: Cc1cc(-c2ccc(CC(=O)Nc3ccc(-c4ccccc4)cn3)cc2)ccn1
IC50 [2]: 0.7 nM | solubility at 24 h [1]: < 2 µM

SMILES: CCCn1c(SCC(=O)Nc2nc3ccc(OC)cc3s2)nnc1-c1ccncc1
IC50 [2]: 12 nM | IC50 [33]: 8 nM | Cmax/dose [3]: 14 nM | AUC/dose [4]: 0.03 µM·h

SMILES: O=C(Cc1ccc(-c2ccncc2)cc1)Nc1nc(-c2ccccc2)cs1
IC50 [2]: 5.5 nM

SMILES: COc1ccc2nc(NC(=O)Cc3ccc(-c4ccnc(C)c4)cc3)sc2c1
inhibition (INH) [34]: Not Active

SMILES: COc1ccc2nc(C(=O)NCc3ccc(-c4ccncc4)cc3)sc2c1
IC50 [2]: 380 nM

More lines, main results first:

solubility at 24 h [1]: 105 µM (≈ 42 µg/mL)
SMILES: Cc1cc(CC(=O)Nc2ccc(-c3cnccn3)cn2)cnc1-c1ccnc(F)c1

IC50 [2]: 26 nM
SMILES: Cc1cc(CC(=O)Nc2ccc(-c3cnccn3)cn2)cnc1-c1ccnc(CO)c1

IC50 [2]: 0.4 nM | solubility at 24 h [1]: 210 µM (≈ 83.3 µg/mL)
SMILES: Cc1cc(-c2ncc(CC(=O)Nc3ccc(-c4cnccn4)cn3)cc2C)ccn1 [WNT-974]

IC50 [2]: 0.7 nM | solubility at 24 h [1]: > 175 µM
SMILES: CC(=O)N1CCN(c2ccc(NC(=O)Cc3cnc(-c4ccnc(C)c4)c(C)c3)nc2)CC1

solubility at 24 h [1]: > 175 µM
SMILES: COC(=O)N1CCN(c2ccc(NC(=O)Cc3cnc(-c4ccnc(C)c4)c(C)c3)nc2)CC1

IC50 [2]: 0.4 nM | solubility at 24 h [1]: 32 µM (≈ 12.7 µg/mL)
SMILES: Cc1cc(-c2ncc(CC(=O)Nc3ccc(-c4ccccn4)cn3)cc2C)ccn1

IC50 [2]: 0.8 nM | solubility at 24 h [1]: 350 µM (≈ 157 µg/mL) | clearance [5]: 5.33 mL/min/kg | clearance [7]: 5.35 mL/min/kg | clearance [8]: 0.67 mL/min/kg | Vd [9]: 0.57 L/kg | Vd [10]: 0.7 L/kg | Vd [11]: 0.25 L/kg | half-life [12]: 2.44 h | half-life [13]: 2.77 h | half-life [14]: 8.86 h | bioavailability [15]: 96% | bioavailability [16]: 84% | bioavailability [17]: 72% | IC50 [18]: > 10000 nM | IC50 [19]: > 10000 nM | IC50 [6]: > 10000 nM | fraction unbound [20]: 0.12 | fraction unbound [21]: 0.169 | fraction unbound [22]: 0.091 | fraction unbound [23]: 0.288 | fraction unbound [24]: 0.05 | Papp A→B [25]: 7.5 ×10⁻⁶ cm/s | efflux ratio [26]: 3.2
SMILES: CC(=O)N1CCN(c2ccc(NC(=O)Cc3cnc(-c4ccnc(F)c4)c(C)c3)nc2)CC1
inhibition in vivo at 3 mg/kg [27]: 90% | inhibition [28]: inactive | T/C [29]: 15% | T/C [30]: -74% | T/C [31]: -84% | Activity [32]: Non-Toxic

solubility at 24 h [1]: 16 µM (≈ 6.12 µg/mL)
SMILES: Cc1cc(-c2ccc(CC(=O)Nc3ccc(-c4cnccn4)cn3)cn2)ccn1

IC50 [2]: 0.2 nM | solubility at 24 h [1]: 6 µM (≈ 2.28 µg/mL)
SMILES: Cc1cc(-c2ccc(CC(=O)Nc3ccc(-c4ccccc4)cn3)cn2)ccn1

IC50 [2]: 24 nM
SMILES: Cc1cc(CC(=O)Nc2ccc(N3CCNCC3)cn2)cnc1-c1ccnc(F)c1

solubility at 24 h [1]: 17 µM (≈ 6.48 µg/mL)
SMILES: Cc1cc(-c2ccc(CC(=O)Nc3ccc(-c4ccccn4)cn3)cn2)ccn1
